Holding throughout (assay): MIC by agar dilution (CLSI) against highly resistant ESBL strain
Type in all cases: cell-based
In general terms: In agar dilution, organisms are placed on agar that contains the substance at set levels.

One assay deals with E. cloacae M-20. The method, then:
(§1) The results on activity of cefepime and other cephalosporin antibacterial agents in combination with tazobactam against highly resistant ESBL strains are given Table 1. In a typical study, overnight grown bacterial cultures were diluted appropriately and inoculated on the agar media containing doubling dilutions of the antibiotic. Observation for growth or no growth was performed after 16-20 h of incubation at 35±2° C. in ambient air. The overall procedure was performed as per Clinical and Laboratory Standards Institute (CLSI) recommendations. This experimental was followed for Examples 2-4 and 6 below (Table 2-4 and 7).

Another assay deals with E. coli M50. The method, then: as §1
The subject of a further assay is E. coli B-89. On the procedure: as §1
The next assay deals with E. coli B123. On the procedure:
as §1

The subject of the next assay is E. coli 7MP. On the procedure: as §1
The mark [1] stands for this setting: E. cloacae M-20, with Tazobactam 4 mcg.
The mark [2] stands for this setting: E. cloacae M-20, with Tazobactam 8 mcg.
The mark [3] stands for this setting: Enterobacter cloacae, M20, 20 h.
Setting [4] is: Escherichia coli, M50, 20 h, Tazobactam 0 mcg (antibiotic alone).
Where [5] appears, read: E. coli B-89, with Tazobactam 4 mcg.
[6] abbreviates: E. coli B-89, with Tazobactam 8 mcg.
Setting [7] is: Escherichia coli, B123, E. coli B123, with Tazobactam 4 mcg, read-out: MIC.
Where [8] appears, read: Escherichia coli, B123, E. coli B123, with Tazobactam 8 mcg, read-out: MIC.
[9] abbreviates: E. coli 7MP, with Tazobactam 4 mcg.
The mark [10] stands for this setting: E. coli 7MP, with Tazobactam 8 mcg.

Read-outs that look alike come from different tables or passages of the source.

In general, MIC refers to the least concentration at which growth counts as inhibited. In the case of `CO/N=C(\C(=O)N[C@@H]1C(=O)N2C(C(=O)O)=C(CSc3nc(=O)c(=O)[nH]n3C)CS[C@H]12)c1csc(N)n1` [Ceftriaxone], the MIC in the assay with E. cloacae M-20 (setting [1]) is over 64 µg/mL; with E. cloacae M-20 (setting [2]), over 64 µg/mL; in the assay on E. cloacae M-20 (setting [3]), over 128 µg/mL; in the assay on E. coli M50 (setting [4]), 128 µg/mL; with E. coli M50 (with Tazobactam 8 mcg), 64 µg/mL; with E. coli B-89 (E. coli B-89, Tazobactam 0 mcg (antibiotic alone)), over 128 µg/mL. Besides, the MIC in the assay on E. coli B-89 (setting [5]) was over 64 µg/mL; in the assay on E. coli B-89 (setting [6]), over 64 µg/mL; in the assay with E. coli B-89 (Escherichia coli, B89, 20 h), over 128 µg/mL; in the assay on E. coli B123 (E. coli B123, Tazobactam 0 mcg (antibiotic alone)), over 128 µg/mL; with E. coli B123 (E. coli B123, with Tazobactam 4 mcg), over 64 µg/mL; with E. coli B123 (E. coli B123, with Tazobactam 8 mcg), over 64 µg/mL. Moreover, the MIC in the assay on E. coli B123 (Escherichia coli, B123) is over 128 µg/mL; in the assay with E. coli B123 (setting [7]), over 64 µg/mL; with E. coli B123 (setting [8]), over 64 µg/mL; in the assay with E. coli 7MP (E. coli 7MP, Tazobactam 0 mcg (antibiotic alone)), over 128 µg/mL; with E. coli 7MP (setting [9]) it was over 64 µg/mL; in the assay with E. coli 7MP (setting [10]) it was over 64 µg/mL. Moreover, the MIC in the assay on E. coli 7MP (Escherichia coli, 7MP, 20 h) was over 128 µg/mL.

With `COCC1=C(C(=O)O)N2C(=O)[C@@H](NC(=O)/C(=N\OC)c3csc(N)n3)[C@H]2SC1` [Cefpodoxime], the MIC is over 64 µg/mL in the assay on E. cloacae M-20 (setting [1]); over 64 µg/mL with E. cloacae M-20 (setting [2]); over 128 µg/mL in the assay with E. cloacae M-20 (Enterobacter cloacae, M20, 20 h, E. cloacae M-20, Tazobactam 0 mcg (antibiotic alone), read-out: MIC); over 128 µg/mL in the assay with E. coli M50 (Escherichia coli, 20 h, Tazobactam 0 mcg (antibiotic alone), read-out: MIC); over 64 µg/mL in the assay with E. coli M50 (with Tazobactam 4 mcg); over 64 µg/mL in the assay on E. coli M50 (with Tazobactam 8 mcg). Further, the MIC with E. coli B-89 (setting [5]) is over 64 µg/mL; with E. coli B-89 (setting [6]), over 64 µg/mL; in the assay with E. coli B-89 (Escherichia coli, B89, 20 h, E. coli B-89, Tazobactam 0 mcg (antibiotic alone), read-out: MIC), over 128 µg/mL; in the assay with E. coli B123 (Escherichia coli, B123, E. coli B123, Tazobactam 0 mcg (antibiotic alone), read-out: MIC), over 128 µg/mL; with E. coli B123 (setting [7]), over 64 µg/mL; with E. coli B123 (setting [8]) it was over 64 µg/mL. For the same compound, the MIC in the assay on E. coli 7MP (setting [9]) was over 64 µg/mL; in the assay on E. coli 7MP (setting [10]), over 64 µg/mL; in the assay with E. coli 7MP (Escherichia coli, 7MP, 20 h, E. coli 7MP, Tazobactam 0 mcg (antibiotic alone), read-out: MIC), over 128 µg/mL.

Regarding `CC(C)(O/N=C(\C(=O)N[C@@H]1C(=O)N2C(C(=O)[O-])=C(C[n+]3ccccc3)CS[C@H]12)c1csc(N)n1)C(=O)O` [Ceftazidime], the MIC is over 64 µg/mL in the assay with E. cloacae M-20 (setting [1]); 64 µg/mL in the assay with E. cloacae M-20 (setting [2]); over 128 µg/mL in the assay on E. cloacae M-20 (setting [3]); over 128 µg/mL in the assay with E. coli M50 (setting [4]); over 64 µg/mL with E. coli M50 (with Tazobactam 4 mcg); over 64 µg/mL in the assay with E. coli M50 (with Tazobactam 8 mcg). Further, the minimal inhibitory concentration (MIC) in the assay on E. coli B-89 (setting [5]) was over 64 µg/mL; in the assay on E. coli B-89 (setting [6]), 64 µg/mL; in the assay on E. coli B-89 (Escherichia coli, B89, 20 h), over 128 µg/mL; in the assay on E. coli B123 (Escherichia coli, B123) it was over 128 µg/mL; with E. coli B123 (setting [7]), over 64 µg/mL; in the assay with E. coli B123 (setting [8]) it was over 64 µg/mL. Further, the minimum inhibitory concentration (MIC) is over 64 µg/mL with E. coli 7MP (setting [9]); over 64 µg/mL in the assay with E. coli 7MP (setting [10]); over 128 µg/mL in the assay on E. coli 7MP (Escherichia coli, 7MP, 20 h).
